The source of these data is patent US7319086B1, “Method of prophylaxis and treatment and agents useful for same” (priority 1999, dated 2008).

Holding throughout (parameters): species or system P. gingivalis
The target in experiment [1] is binding of rHA2 or the gingipains (RgpA, Kgp) to hemin (Porphyromonas gingivalis, UniProt Q51816, A1188S/A1219P/Q1165E). The experiment can be described thus: solution-phase competition assay, hemin-coated wells. The conditions noted are these: read-out: IC50, inhibition of binding to hemin. As to the method:
(§1) Data are representative of two separate experiments. The absence of contaminating protein in a 90 μg protoporphyrin IX preparation was verified by SDS-PAGE and by Coomassie dye binding.
(§2) The IC50s for ligand binding in solution phase competition assays were determined. […] Hemoglobin was used as it was considered to represent the dominant form of porphyrin presentation in the pathological environment of chronic periodontitis.

Experiment [2] has as its target binding of rHA2 or the gingipains (RgpA, Kgp) to hemoglobin (Porphyromonas gingivalis, UniProt Q51816, A1188S/A1219P/Q1165E). The experiment can be described thus: solution-phase competition assay, hemoglobin-coated wells (rHA2 or gingipains). The conditions noted are these: preincubated 1 hr, read-out: IC50, inhibition of binding to hemoglobin. As to the method:
as §1, §2

A further experiment has as its system rHA2. The experiment can be described thus: directed porphyrin binding: porphyrins linked by carbodiimide to ethylene diamine-coated wells. The conditions noted are these: propionic acid groups linked to fixed amines, compared with non-derivatized porphyrin; 125 ng/ml rHA2. The procedure: Microtiter wells were coated with 100 mM ethylene diamine (pH 4.7) then incubated with 90 μg/ml hemin, protoporphyrin IX, or hematoporphyrin overnight in 50% dimethyl formamide in the presence (+) or absence (−) of 10 mM carbodiimide. Wells were washed 4 times with water then the amount of porphyrin bound to the wells was determined by absorbance at 414 nm (striped bars). […] Error bars represent standard deviation of absorbance measurements. Diagrams of chemical structures for hemin, protoporphyrin IX, and hematoporphyrin are presented adjacent to corresponding data.
The inventors reasoned, therefore, that blocking access to the acidic region of protoporphyrin molecules would have an effect on rHA2-binding and allow more specific characterization of binding between the HA2 domain and the porphyrin ring. Modifying the ligand binding assay system used above, surfaces were first coated with ethylene diamine to provide fixed, free, primary amines for carbodiimide linkage of carboxylic acid groups.

Regarding `C=CC1=C(C)c2cc3[nH]c(cc4nc(cc5[nH]c(cc1n2)c(C)c5CCC(=O)O)C(CCC(=O)O)=C4C)c(C)c3C=C` [protoporphyrin IX], the IC50 is ~2.5 µM in experiment [1] and 10 ± 2 µM in experiment [2]. As to hemin, the “rHA2-binding to carbodiimide-treated porphyrin” value in the experiment with rHA2 is listed as “almost eliminated”.

Broadly, the IC50 is the concentration that gives 50% inhibition.
